Assay results published in patent US11078204B2, “Heterocyclic derivatives as PI3K inhibitors” (Incyte Corporation, priority 2018, dated 2021).
pIC50: −log10 of the molar value. Where a name gives a salt, the structure may show the parent alone.

How the values were obtained:
[1] = molecular target: PI3Kγ (p110γ) Recombinant Human Protein (Homo sapiens (Human), UniProt P48736); assay: PI3K-γ Scintillation Proximity Assay; type: biochemical; settings: 20 μM PIP2, 2 μM ATP, 13 nM PI3Kγ, 120 min
Description: Example B. PI3K-γ Scintillation Proximity Assay
(§1) [γ-^33P]ATP (10 mCi/mL) and Wheat Germ Agglutinin (WGA) YSi SPA Scintillation Beads was purchased from Perkin Elmer (Waltham, Mass.). Lipid kinase substrate, D-myo-Phosphatidylinositol 4,5-bisphosphate (PtdInS(4,5)P2)D (+)-sn-1,2-di-O-octanoylglyceryl, 3-O-phospho linked (PIP2), CAS 204858-53-7, was purchased from Echelon Biosciences (Salt Lake City, Utah). PI3Kγ (p110γ) Recombinant Human Protein was purchased from Life technology (Grand Island, N.Y.). ATP, MgCl2, DTT, EDTA, MOPS and CHAPS were purchased from Sigma Aldrich (St. Louis, Mo.).
(§2) The kinase reaction was conducted in polystyrene 384-well Greiner Bio-one white plate from Thermo Fisher Scientific in a final volume of 25 μL. Inhibitors were first diluted serially in DMSO and added to the plate wells before the addition of other reaction components. The final concentration of DMSO in the assay was 2%. The PI3Kγ assay was carried out at room temperature in 20 mM MOPS, pH 6.7, 10 mM MgCl2, 5 mM DTT and CHAPS 0.03%. Reactions were initiated by the addition of ATP, the final reaction mixture consisted of 20 μM PIP2, 2 μM ATP, 0.5 μCi [γ-^33p]ATP, 13 nM PI3Kγ. Reactions were incubated for 120 min and terminated by the addition of 40 μL SPA beads suspended in quench buffer: 163 mM potassium phosphate pH 7.8, 20% glycerol, 25 mM EDTA. The final concentration of SPA beads is 1.0 mg/mL. After the plate sealing, plates were shaken overnight at room temperature and centrifuged at 1500 rpm for 10 min, the radioactivity of the product was determined by scintillation counting on Topcount (PerkinElmer). IC50 determination was performed by fitting the curve of percent of the solvent control activity versus the log of the inhibitor concentration using the GraphPad Prism 6.0 software.

[2] = molecular target: PI3Kδ (p110δ/p85α) Recombinant Human Protein (Homo sapiens (Human), UniProt O00329); assay: PI3Kδ Scintillation Proximity Assay; type: biochemical; settings: 20 μM PIP2, 2 μM ATP, 3.4 nM PI3Kδ, 120 min
Description: Example C. PI3Kδ Scintillation Proximity Assay
as §1, with “PI3Kδ (p110δ/p85α)” for “PI3Kγ (p110γ)”, “Eurofins (St Charles, Mo.).” for “Life technology (Grand Island, N.Y.).”
as §2, with “PI3Kδ” for “PI3Kγ”, “[γ-^33P]ATP, 3.4” for “[γ-^33p]ATP, 13”, “PI3Kδ.” for “PI3Kγ.”

Chain of PI3Kγ (p110γ) Recombinant Human Protein (P48736 whole entry): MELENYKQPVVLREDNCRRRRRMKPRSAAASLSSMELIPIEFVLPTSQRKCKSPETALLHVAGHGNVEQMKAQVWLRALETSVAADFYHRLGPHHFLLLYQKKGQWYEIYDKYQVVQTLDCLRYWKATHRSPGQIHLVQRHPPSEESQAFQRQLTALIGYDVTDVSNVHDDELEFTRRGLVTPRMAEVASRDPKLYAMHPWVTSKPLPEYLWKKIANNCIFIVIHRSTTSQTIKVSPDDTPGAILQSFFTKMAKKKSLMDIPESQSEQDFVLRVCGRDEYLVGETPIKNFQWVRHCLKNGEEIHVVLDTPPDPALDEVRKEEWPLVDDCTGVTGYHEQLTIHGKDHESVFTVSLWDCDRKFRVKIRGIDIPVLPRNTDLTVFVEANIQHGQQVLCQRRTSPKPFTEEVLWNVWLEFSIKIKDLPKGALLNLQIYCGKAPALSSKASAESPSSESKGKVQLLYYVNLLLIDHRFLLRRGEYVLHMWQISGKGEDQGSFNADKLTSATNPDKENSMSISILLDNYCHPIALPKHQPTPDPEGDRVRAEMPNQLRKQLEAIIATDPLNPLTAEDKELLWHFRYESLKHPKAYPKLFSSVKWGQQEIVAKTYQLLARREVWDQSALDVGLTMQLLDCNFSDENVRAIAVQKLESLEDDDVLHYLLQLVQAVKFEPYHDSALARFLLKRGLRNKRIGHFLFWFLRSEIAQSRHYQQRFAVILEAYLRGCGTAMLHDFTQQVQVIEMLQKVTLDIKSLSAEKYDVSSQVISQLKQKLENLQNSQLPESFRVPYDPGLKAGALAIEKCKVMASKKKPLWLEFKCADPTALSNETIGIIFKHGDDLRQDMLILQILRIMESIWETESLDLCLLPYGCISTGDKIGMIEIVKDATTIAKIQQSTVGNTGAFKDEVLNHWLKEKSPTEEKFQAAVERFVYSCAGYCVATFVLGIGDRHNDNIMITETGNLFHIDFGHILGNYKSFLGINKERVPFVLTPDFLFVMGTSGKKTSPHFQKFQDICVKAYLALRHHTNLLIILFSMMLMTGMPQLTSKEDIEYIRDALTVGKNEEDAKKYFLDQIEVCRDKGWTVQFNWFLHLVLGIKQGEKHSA
Chain of PI3Kδ (p110δ/p85α) Recombinant Human Protein (O00329 whole entry): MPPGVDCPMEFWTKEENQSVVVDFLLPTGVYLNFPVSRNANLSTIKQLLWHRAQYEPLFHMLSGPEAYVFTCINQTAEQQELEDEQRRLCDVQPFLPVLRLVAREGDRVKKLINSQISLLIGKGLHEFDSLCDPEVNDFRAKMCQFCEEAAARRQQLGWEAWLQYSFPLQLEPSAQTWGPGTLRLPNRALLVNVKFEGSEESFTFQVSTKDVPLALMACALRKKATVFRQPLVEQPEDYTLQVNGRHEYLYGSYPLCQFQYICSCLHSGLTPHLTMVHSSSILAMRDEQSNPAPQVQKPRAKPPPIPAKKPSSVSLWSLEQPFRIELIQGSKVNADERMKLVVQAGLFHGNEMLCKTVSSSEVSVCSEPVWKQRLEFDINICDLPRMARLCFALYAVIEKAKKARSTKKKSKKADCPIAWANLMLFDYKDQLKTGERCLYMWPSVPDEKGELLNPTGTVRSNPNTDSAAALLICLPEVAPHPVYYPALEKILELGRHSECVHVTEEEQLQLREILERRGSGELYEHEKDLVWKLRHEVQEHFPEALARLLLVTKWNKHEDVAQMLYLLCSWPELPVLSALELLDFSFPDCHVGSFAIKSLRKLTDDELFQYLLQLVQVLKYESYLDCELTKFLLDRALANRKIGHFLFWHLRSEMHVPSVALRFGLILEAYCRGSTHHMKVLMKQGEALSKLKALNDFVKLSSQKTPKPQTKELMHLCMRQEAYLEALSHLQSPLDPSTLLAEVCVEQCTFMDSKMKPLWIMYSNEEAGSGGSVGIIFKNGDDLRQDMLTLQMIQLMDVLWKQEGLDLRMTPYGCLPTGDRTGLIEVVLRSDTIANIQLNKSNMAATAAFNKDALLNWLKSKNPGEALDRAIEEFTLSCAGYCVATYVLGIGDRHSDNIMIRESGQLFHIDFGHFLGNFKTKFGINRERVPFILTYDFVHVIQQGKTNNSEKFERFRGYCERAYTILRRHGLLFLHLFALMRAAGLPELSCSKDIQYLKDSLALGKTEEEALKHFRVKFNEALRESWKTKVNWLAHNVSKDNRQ
Chain of PI3Kδ (p110δ/p85α) Recombinant Human Protein (P27986 whole entry partner): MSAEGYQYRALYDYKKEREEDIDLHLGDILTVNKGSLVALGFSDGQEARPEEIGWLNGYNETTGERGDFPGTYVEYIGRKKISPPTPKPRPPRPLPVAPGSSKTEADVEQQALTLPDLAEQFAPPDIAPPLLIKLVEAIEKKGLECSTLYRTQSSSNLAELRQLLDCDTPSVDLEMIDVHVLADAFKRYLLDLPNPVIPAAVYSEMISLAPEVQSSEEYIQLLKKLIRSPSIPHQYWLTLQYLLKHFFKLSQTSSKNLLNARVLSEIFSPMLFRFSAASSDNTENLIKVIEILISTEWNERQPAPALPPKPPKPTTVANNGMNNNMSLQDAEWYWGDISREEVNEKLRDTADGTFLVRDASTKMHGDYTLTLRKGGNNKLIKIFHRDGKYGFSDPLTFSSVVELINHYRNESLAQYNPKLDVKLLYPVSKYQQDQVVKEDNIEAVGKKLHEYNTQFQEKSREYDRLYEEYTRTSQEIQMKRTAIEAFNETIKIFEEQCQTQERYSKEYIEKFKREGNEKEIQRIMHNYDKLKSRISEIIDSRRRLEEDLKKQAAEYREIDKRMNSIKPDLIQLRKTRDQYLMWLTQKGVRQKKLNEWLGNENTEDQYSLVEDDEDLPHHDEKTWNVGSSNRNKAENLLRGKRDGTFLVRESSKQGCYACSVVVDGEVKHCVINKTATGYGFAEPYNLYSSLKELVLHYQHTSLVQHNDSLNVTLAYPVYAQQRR

Q: With `CC(c1ccccc1)N1Cc2cc(-c3cnc4c(N)nc(C(F)(F)F)cn34)ccc2C1=O` (racemic) [Example 11, 5-(8-Amino-6-(trifluoromethyl)imidazo[1,2-a]pyrazin-3-yl)-2-(1-phenylethyl)isoindolin-1-one 1.4× trifluoroacetate salt] as the compound, how does the pIC50 [1] read?
A: ≥ 7.00

Q: What about the pIC50 [2] of the same compound?
A: ≤ 5.70

Q: How did the pIC50 [1] turn out when `CC(C1CC1)n1nc2ccc(-c3cnc4c(N)ncnn34)cc2n1` (racemic) [Example 20, 7-(2-(1-cyclopropylethyl)-2H-benzo[d][1,2,3]triazol-5-yl)imidazo[2,1-f][1,2,4]triazin-4-amine trifluoroacetate salt] was run?
A: ≥ 6.30

Q: And the pIC50 [2]?
A: ≤ 5.70

Q: With `CC(C)(C)OC(=O)NCC(C1CC1)N1Cc2cc(-c3cnc4c(N)nc(C(F)(F)F)cn34)ccc2C1=O` (racemic) [Example 41, tert-Butyl (2-(5-(8-amino-6-(trifluoromethyl)imidazo[1,2-a]pyrazin-3-yl)-1-oxoisoindolin-2-yl)-2-cyclopropylethyl)carbamate] as the compound, how does the pIC50 [1] read?
A: ≥ 6.30

Q: What about the pIC50 [2] of the same compound?
A: ≤ 5.70

Q: `NCC(C1CC1)N1Cc2cc(-c3cnc4c(N)nc(C(F)(F)F)cn34)ccc2C1=O` (racemic) [Example 42, 2-(2-Amino-1-cyclopropylethyl)-5-(8-amino-6-(trifluoromethyl)imidazo[1,2-a]pyrazin-3-yl)isoindolin-1-one, trifluoroacetate salt] was tested. Which pIC50 [1] did it give?
A: > 5.70

Q: And the pIC50 [2]?
A: ≤ 5.70

Q: With `CS(=O)(=O)NCC(C1CC1)N1Cc2cc(-c3cnc4c(N)nc(C(F)(F)F)cn34)ccc2C1=O` (racemic) [Example 43, N-(2-(5-(8-Amino-6-(trifluoromethyl)imidazo[1,2-a]pyrazin-3-yl)-1-oxoisoindolin-2-yl)-2-cyclopropylethyl)methanesulfonamide, trifluoroacetate salt] as the compound, how does the pIC50 [1] read?
A: > 5.70

Q: And the pIC50 [2]?
A: ≤ 5.70

Q: Which results are given for `CC(=O)NCC(C1CC1)N1Cc2cc(-c3cnc4c(N)nc(C(F)(F)F)cn34)ccc2C1=O` (racemic) [Example 44, N-(2-(5-(8-Amino-6-(trifluoromethyl)imidazo[1,2-a]pyrazin-3-yl)-1-oxoisoindolin-2-yl)-2-cyclopropylethyl)acetamide, trifluoroacetate salt]?
A: pIC50 [1]: > 5.70; pIC50 [2]: ≤ 5.70

Q: With `CNC(=O)C(C1CC1)N1Cc2cc(-c3cnc4c(N)nc(C(F)(F)F)cn34)ccc2C1=O` (racemic) [Example 45, 2-(5-(8-Amino-6-(trifluoromethyl)imidazo[1,2-a]pyrazin-3-yl)-1-oxoisoindolin-2-yl)-2-cyclopropyl-N-methylacetamide, trifluoroacetate salt] as the compound, how does the pIC50 [1] read?
A: > 5.70

Q: What about the pIC50 [2] of the same compound?
A: ≤ 5.70

Q: `Nc1nc(C(F)(F)F)cn2c(-c3ccc4c(c3)CN(C(CO)C3CC3)C4=O)cnc12` (racemic) [Example 46, 5-(8-Amino-6-(trifluoromethyl)imidazo[1,2-a]pyrazin-3-yl)-2-(1-cyclopropyl-2-hydroxyethyl)isoindolin-1-one, trifluoroacetate salt] was tested. Which pIC50 [1] did it give?
A: ≥ 6.30

Q: And the pIC50 [2]?
A: ≤ 5.70

Q: `Nc1nc(C(F)(F)F)cn2c(-c3ccc4c(c3)CN(C(C(=O)O)C3CC3)C4=O)cnc12` (racemic) [Example 47, 2-(5-(8-Amino-6-(trifluoromethyl)imidazo[1,2-a]pyrazin-3-yl)-1-oxoisoindolin-2-yl)-2-cyclopropylacetic acid, trifluoroacetate salt] was tested. Which pIC50 [1] did it give?
A: > 5.70

Q: And the pIC50 [2]?
A: ≤ 5.70

Q: With `C[C@@H](C1CC1)N1Cc2cc(-c3cnc4c(N)nc(C(=O)N5CC(O)C5)cn34)ccc2C1=O` (single isomer, unassigned) [Example 30, trifluoroacetate salt] as the compound, how does the pIC50 [1] read?
A: ≥ 7.00

Q: What about the pIC50 [2] of the same compound?
A: ≤ 5.70

Q: `Nc1nc(C(F)(F)F)cn2c(-c3ccc4c(c3)CNC4=O)cnc12` [Example 4, 5-(8-Amino-6-(trifluoromethyl)imidazo[1,2-a]pyrazin-3-yl)isoindolin-1-one trifluoroacetate salt] was tested. Which pIC50 [1] did it give?
A: > 5.70

Q: What about the pIC50 [2] of the same compound?
A: > 5.70

Q: With `CCN1Cc2cc(-c3cnc4c(N)nc(C(F)(F)F)cn34)ccc2C1=O` [Example 9, 5-(8-Amino-6-(trifluoromethyl)imidazo[1,2-a]pyrazin-3-yl)-2-ethylisoindolin-1-one trifluoroacetate salt] as the compound, how does the pIC50 [1] read?
A: ≥ 6.30

Q: And the pIC50 [2]?
A: > 5.70

Q: How did the pIC50 [1] turn out when `CCN1Cc2cc(-c3cnc4c(N)ncnn34)ccc2C1=O` [Example 10, 5-(4-Aminoimidazo[2,1-f][1,2,4]triazin-7-yl)-2-ethylisoindolin-1-one trifluoroacetate salt] was run?
A: ≥ 6.30

Q: And the pIC50 [2]?
A: > 5.70

Q: `Cc1cc(-c2cnc3c(N)ncnn23)cc2cnn(C(C)C3CC3)c12` (stereo not shown) [Example 19, 7-(1-(1-Cyclopropylethyl)-7-methyl-1H-indazol-5-yl)imidazo[2,1-f][1,2,4]triazin-4-amine trifluoroacetate salt] was tested. Which pIC50 [1] did it give?
A: ≥ 6.30

Q: What about the pIC50 [2] of the same compound?
A: ≤ 5.70

Q: With `CC(C)c1nc2ccc(-c3cnc4c(N)ncnn34)cn2n1` [Example 21, 7-(2-Isopropyl-[1,2,4]triazolo[1,5-a]pyridin-6-yl)imidazo[2,1-f][1,2,4]triazin-4-amine trifluoroacetate salt] as the compound, how does the pIC50 [1] read?
A: ≥ 6.30

Q: What about the pIC50 [2] of the same compound?
A: ≤ 5.70

Q: With `CC(C)c1cn2cc(-c3cnc4c(N)ncnn34)ccc2n1` [Example 22, 7-(2-isopropylimidazo[1,2-a]pyridin-6-yl)imidazo[2,1-f][1,2,4]triazin-4-amine] as the compound, how does the pIC50 [1] read?
A: ≥ 6.30

Q: And the pIC50 [2]?
A: ≤ 5.70

Q: With `CC(C)c1cc2cc(-c3cnc4c(N)ncnn34)ccn2n1` [Example 23, 7-(2-Isopropylpyrazolo[1,5-a]pyridin-5-yl)imidazo[2,1-f][1,2,4]triazin-4-amine trifluoroacetate salt] as the compound, how does the pIC50 [1] read?
A: ≥ 6.30

Q: And the pIC50 [2]?
A: ≤ 5.70

Q: Which results are given for `CC(C)c1cc2nc(-c3cnc4c(N)ncnn34)ccn2n1` [Example 24, 7-(2-Isopropylpyrazolo[1,5-a]pyrimidin-5-yl)imidazo[2,1-f][1,2,4]triazin-4-amine trifluoroacetate salt]?
A: pIC50 [1]: > 5.70; pIC50 [2]: ≤ 5.70

Q: With `CC(C1CC1)n1cc2cc(-c3cnc4c(N)ncnn34)ncc2n1` (stereo not shown) [Example 26, 7-(2-(1-Cyclopropylethyl)-2H-pyrazolo[3,4-c]pyridin-5-yl)imidazo[2,1-f][1,2,4]triazin-4-amine, trifluoroacetate] as the compound, how does the pIC50 [1] read?
A: ≥ 7.00

Q: What about the pIC50 [2] of the same compound?
A: ≤ 5.70

Q: Which results are given for `CC(c1cn2cc(-c3cnc4c(N)ncnn34)ccc2n1)C1CC1` (stereo not shown) [Example 27, 7-(2-(1-Cyclopropylethyl)imidazo[1,2-a]pyridin-6-yl)imidazo[2,1-f][1,2,4]triazin-4-amine trifluoroacetate salt]?
A: pIC50 [1]: ≥ 7.00; pIC50 [2]: ≤ 5.70
